From PubChem BioAssay (NCI)
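96-well plates; 48 h exposure; 5 concentrations. Endpoints by linear interpolation between flanking doses. Not reached: highest tested concentration assigned. Abbreviation: GI50, concentration required for 50% inhibition of growth. TGI denotes the concentration required for complete inhibition of growth.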

Columns and labels:
Assay in all cases: DTP human tumour cell line panel, 48 h
[1] = system: SF-295 CNS
[2] = system: HT29 colon
[3] = system: EKVX NSCLC
[4] = system: UO-31 renal
[5] = system: CAKI-1 renal
[6] = system: OVCAR-3 ovarian
[7] = system: SR leukemia
[8] = system: OVCAR-8 ovarian
[9] = system: U251 CNS
[10] = system: HOP-92 NSCLC
[11] = system: SNB-19 CNS
[12] = system: SN12C renal
[13] = system: T-47D breast
[14] = system: NCI/ADR-RES ovarian
[15] = system: OVCAR-5 ovarian
[16] = system: MDA-MB-435
[17] = system: A498 renal
[18] = system: SF-539 CNS
[19] = system: KM12 colon
[20] = system: SF-268 CNS
[21] = system: COLO 205 colon
[22] = system: MDA-MB-231 breast
[23] = system: TK-10 renal
[24] = system: RPMI-8226 leukemia
[25] = system: HS 578T breast
[26] = system: HCC-2998 colon
[27] = system: IGROV1 ovarian
[28] = system: K-562 leukemia
[29] = system: SK-OV-3 ovarian
[30] = system: ACHN renal
[31] = system: DU-145 prostate
[32] = system: SK-MEL-5 melanoma
[33] = system: SK-MEL-28 melanoma
[34] = system: UACC-62 melanoma
[35] = system: M14 melanoma
[36] = system: PC-3 prostate
[37] = system: A549 NSCLC
[38] = system: HOP-62 NSCLC
[39] = system: HCT-116 colon
[40] = system: MCF7 breast
[41] = system: LOX IMVI melanoma
[42] = system: HCT-15 colon
[43] = system: SK-MEL-2 melanoma
[44] = system: MOLT-4 leukemia
[45] = system: NCI-H460 lung
[46] = system: OVCAR-4 ovarian
[47] = system: 786-0 renal
[48] = system: RXF 393 renal
[49] = system: SNB-75 CNS
[50] = system: HL-60(TB) leukemia
[51] = system: SW-620 colon
[52] = system: BT-549 breast
[53] = system: NCI-H226 lung
[54] = system: NCI-H23 lung
[55] = system: NCI-H522 lung

## O=S(=O)(NCCCNc1cc(-c2cn(-c3ccccc3)nc2-c2cccc(O)c2)ccn1)c1ccc(Br)cc1
[1]
  GI50: 1.36 µM
  TGI: 3.09 µM
[2]
  GI50: 0.639 µM
  TGI: 2.35 µM
[3]
  GI50: 2.29 µM
  TGI: 66.4 µM
[4]
  GI50: 2.17 µM
  TGI: 8.95 µM
[5]
  GI50: 2.25 µM
  TGI: 12.6 µM
[6]
  GI50: 1.66 µM
  TGI: 3.61 µM
[7]
  GI50: 1.51 µM
  TGI: 5.49 µM
[8]
  GI50: 2.45 µM
  TGI: 9.29 µM
[9]
  GI50: 1.21 µM
  TGI: 4.44 µM
[10]
  GI50: 1.83 µM
  TGI: 7.55 µM
[11]
  GI50: 2.98 µM
  TGI: 14.7 µM
[12]
  GI50: 2.75 µM
  TGI: 9.8 µM
[13]
  GI50: 1.76 µM
  TGI: 6.38 µM
[14]
  GI50: 2.33 µM
  TGI: 8.19 µM
[15]
  GI50: 2.12 µM
  TGI: 5.55 µM
[16]
  GI50: 1.7 µM
  TGI: 3.53 µM
[17]
  GI50: 0.386 µM
  TGI: 2.89 µM
[18]
  GI50: 1.69 µM
  TGI: 4.01 µM
[19]
  GI50: 1.65 µM
  TGI: 3.94 µM
[20]
  GI50: 1.45 µM
  TGI: 4.98 µM
[21]
  GI50: 1.65 µM
  TGI: 3.4 µM
[22]
  GI50: 1.6 µM
  TGI: 4.25 µM
[23]
  GI50: 3.35 µM
  TGI: 10.2 µM
[24]
  GI50: 1.45 µM
  TGI: 4.68 µM
[25]
  GI50: 1.16 µM
  TGI: 4.82 µM
[26]
  GI50: 2 µM
  TGI: 3.78 µM
[27]
  GI50: 3.58 µM
  TGI: 29 µM
[28]
  GI50: 0.444 µM
  TGI: 2.89 µM
[29]
  GI50: 2.76 µM
  TGI: 9.3 µM
[30]
  GI50: 2.97 µM
  TGI: 15.4 µM
[31]
  GI50: 2.45 µM
  TGI: 8.08 µM
[32]
  GI50: 1.27 µM
  TGI: 2.63 µM
[33]
  GI50: 1.97 µM
  TGI: 4.31 µM
[34]
  GI50: 1.57 µM
  TGI: 3.59 µM
[35]
  GI50: 1.78 µM
  TGI: 3.78 µM
[36]
  GI50: 2.11 µM
  TGI: 7.83 µM
[37]
  GI50: 2.6 µM
  TGI: 12.6 µM
[38]
  GI50: 1.88 µM
  TGI: 4.59 µM
[39]
  GI50: 1.71 µM
  TGI: 4.22 µM
[40]
  GI50: 1.76 µM
  TGI: 5.16 µM
[41]
  GI50: 1.49 µM
  TGI: 2.9 µM
[42]
  GI50: 1.32 µM
  TGI: 3.51 µM
[43]
  GI50: 1.95 µM
  TGI: 3.84 µM
[44]
  GI50: 1.13 µM
  TGI: 3.73 µM
[45]
  GI50: 1.77 µM
  TGI: 3.72 µM
[46]
  GI50: 1.86 µM
  TGI: 8.65 µM
[47]
  GI50: 1.5 µM
  TGI: 4.29 µM
[48]
  GI50: 1.09 µM
  TGI: 3.5 µM
[49]
  GI50: 1.22 µM
  TGI: 7.81 µM
[50]
  GI50: 1.79 µM
  TGI: 4.92 µM
[51]
  GI50: 1.62 µM
  TGI: 3.65 µM
[52]
  GI50: 1.68 µM
  TGI: 4.32 µM
[53]
  GI50: 2.32 µM
  TGI: 8.66 µM
[54]
  GI50: 2.19 µM
  TGI: 12.1 µM
[55]
  GI50: 2.11 µM
  TGI: 4.85 µM
